Earlier results as cited in patent publication US9339581B2, “Absorbent and absorbent article provided therewith” (UNICHARM CORPORATION, priority 2012, dated 2016).

Conditions: at 20° C.; cited from earlier work

Q: Which vapor pressure does the source give for `CCCCC(=O)CCCC` [5-nonanone] here?
A: Its vapor pressure is “about 230 Pa”.
